{"source": "patent US9113629B2", "about": "“4-amino-6-(4-substituted-phenyl)-picolinates and 6-amino-2-(4-substituted-phenyl)-pyrimidine-4-carboxylates and their use as herbicides” (DOW AGROSCIENCES LLC, priority 2013, dated 2015)", "key": {"[1]": {"tested_on": "Key Broadleaf Weed and Crop Species", "assay": "Post-emergent Test II herbicidal activity (Table 5)", "type": "in vivo", "settings": "post-emergence, 336 h, 14 days after application; for pest or weed control at 70 g/ha: application rate 70 g ai/ha; for pest or weed control at 140 g/ha: application rate 140 g ai/ha", "summary_of_the_method": "(§1)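 Test species were raised 7–21 d under greenhouse conditions until reaching the first or second true leaf, sprayed with formulated compound at 187 L/ha, and kept subirrigated to avoid wash-off. Fourteen days later, damage was rated visually on a 0–100% scale against untreated plants.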"}, "[2]": {"tested_on": "Key Grass and Sedge Weeds as well as Grass Crops", "assay": "Post-emergent Test II herbicidal activity (Table 6)", "type": "in vivo", "settings": "post-emergence, 336 h; for pest or weed control at 70 g/ha: 70 g ai/ha; for pest or weed control at 140 g/ha: 140 g ai/ha", "summary_of_the_method": "as §1"}, "[3]": {"settings": "ABUTH: velvetleaf (Abutilon theophrasti), read-out: Visual Growth Reduction (%) 14 Days After Application, ABUTH"}, "[4]": {"settings": "AMARE: redroot pigweed (Amaranthus retroflexus), read-out: Visual Growth Reduction (%) 14 Days After Application, AMARE"}, "[5]": {"settings": "BRSNN: oilseed-rape, canola (Brassica napus), read-out: Visual Growth Reduction (%) 14 Days After Application, BRSNN"}, "[6]": {"settings": "CHEAL: lambsquarters (Chenopodium album), read-out: Visual Growth Reduction (%) 14 Days After Application, CHEAL"}, "[7]": {"settings": "EPHHL: wild poinsettia (Euphorbia heterophylla), read-out: Visual Growth Reduction (%) 14 Days After Application, EPHHL"}, "[8]": {"settings": "HELAN: sunflower (Helianthus annuus), read-out: Visual Growth Reduction (%) 14 Days After Application, HELAN"}, "[9]": {"settings": "VIOTR: wild pansy (Viola tricolor), read-out: Visual Growth Reduction (%) 14 Days After Application, VIOTR"}, "[10]": {"settings": "CYPES: yellow nutsedge (Cyperus esculentus), read-out: Visual Growth Reduction (%) 14 Days After Application, CYPES"}, "[11]": {"settings": "DIGSA: crabgrass (Digitaria sanguinalis), read-out: Visual Growth Reduction (%) 14 Days After Application, DIGSA"}, "[12]": {"settings": "ECHCG: barnyardgrass (Echinochloa crus-galli), read-out: Visual Growth Reduction (%) 14 Days After Application, ECHCG"}, "[13]": {"settings": "ORYSA: rice (Oryza sativa), crop, read-out: Visual Growth Reduction (%) 14 Days After Application, ORYSA"}, "[14]": {"settings": "SETFA: giant foxtail (Setaria faberi), read-out: Visual Growth Reduction (%) 14 Days After Application, SETFA"}, "[15]": {"settings": "SORVU: grain sorghum (Sorghum vulgare), read-out: Visual Growth Reduction (%) 14 Days After Application, SORVU"}, "[16]": {"settings": "TRZSS (wheat, Triticum aestivum), crop, read-out: Visual Growth Reduction (%) 14 Days After Application, TRZSS"}, "[17]": {"settings": "ZEAMX: maize, corn (Zea mays), crop, read-out: Visual Growth Reduction (%) 14 Days After Application, ZEAMX"}}, "note": "Read-outs that look alike come from different tables or passages of the source."}
{"smiles": "COC(=O)c1nc(-c2ccccc2F)c(F)c(N)c1Cl", "note": "[Compound 206]", "values": [{"measurement": "pest or weed control at 70 g/ha", "setting": "[1]; [3]", "result": "95 to 100", "unit": "%"}, {"measurement": "pest or weed control at 140 g/ha", "setting": "[1]; [3]", "result": "95 to 100", "unit": "%"}, {"measurement": "pest or weed control at 70 g/ha", "setting": "[1]; [4]", "result": "95 to 100", "unit": "%"}, {"measurement": "pest or weed control at 140 g/ha", "setting": "[1]; [4]", "result": "95 to 100", "unit": "%"}, {"measurement": "pest or weed control at 70 g/ha", "setting": "[1]; [5]", "result": "75 to 84", "unit": "%"}, {"measurement": "pest or weed control at 140 g/ha", "setting": "[1]; [5]", "result": "85 to 94", "unit": "%"}, {"measurement": "pest or weed control at 70 g/ha", "setting": "[1]; [6]", "result": "85 to 94", "unit": "%"}, {"measurement": "pest or weed control at 140 g/ha", "setting": "[1]; [6]", "result": "85 to 94", "unit": "%"}, {"measurement": "pest or weed control at 70 g/ha", "setting": "[1]; [7]", "result": "95 to 100", "unit": "%"}, {"measurement": "pest or weed control at 140 g/ha", "setting": "[1]; [7]", "result": "95 to 100", "unit": "%"}, {"measurement": "pest or weed control at 70 g/ha", "setting": "[1]; [8]", "result": "60 to 74", "unit": "%"}, {"measurement": "pest or weed control at 140 g/ha", "setting": "[1]; [8]", "result": "85 to 94", "unit": "%"}, {"measurement": "pest or weed control at 70 g/ha", "setting": "[1]; [9]", "result": "45 to 59", "unit": "%"}, {"measurement": "pest or weed control at 140 g/ha", "setting": "[1]; [9]", "result": "60 to 74", "unit": "%"}, {"measurement": "pest or weed control at 70 g/ha", "setting": "[2]; [10]", "result": "0 to 29", "unit": "%"}, {"measurement": "pest or weed control at 140 g/ha", "setting": "[2]; [10]", "result": "0 to 29", "unit": "%"}, {"measurement": "pest or weed control at 70 g/ha", "setting": "[2]; [11]", "result": "0 to 29", "unit": "%"}, {"measurement": "pest or weed control at 140 g/ha", "setting": "[2]; [11]", "result": "0 to 29", "unit": "%"}, {"measurement": "pest or weed control at 70 g/ha", "setting": "[2]; [12]", "result": "0 to 29", "unit": "%"}, {"measurement": "pest or weed control at 140 g/ha", "setting": "[2]; [12]", "result": "0 to 29", "unit": "%"}, {"measurement": "pest or weed control at 70 g/ha", "setting": "[2]; [13]", "result": "0 to 29", "unit": "%"}, {"measurement": "pest or weed control at 140 g/ha", "setting": "[2]; [13]", "result": "0 to 29", "unit": "%"}, {"measurement": "pest or weed control at 70 g/ha", "setting": "[2]; [14]", "result": "0 to 29", "unit": "%"}, {"measurement": "pest or weed control at 140 g/ha", "setting": "[2]; [14]", "result": "0 to 29", "unit": "%"}, {"measurement": "pest or weed control at 70 g/ha", "setting": "[2]; [15]", "result": "0 to 29", "unit": "%"}, {"measurement": "pest or weed control at 140 g/ha", "setting": "[2]; [15]", "result": "0 to 29", "unit": "%"}, {"measurement": "pest or weed control at 70 g/ha", "setting": "[2]; [16]", "result": "0 to 29", "unit": "%"}, {"measurement": "pest or weed control at 140 g/ha", "setting": "[2]; [16]", "result": "0 to 29", "unit": "%"}, {"measurement": "pest or weed control at 70 g/ha", "setting": "[2]; [17]", "result": "0 to 29", "unit": "%"}, {"measurement": "pest or weed control at 140 g/ha", "setting": "[2]; [17]", "result": "0 to 29", "unit": "%"}]}
{"smiles": "COC(=O)c1nc(-c2ccc(C(F)F)cc2)c(F)c(N)c1Cl", "note": "[Compound 209]", "values": [{"measurement": "pest or weed control at 70 g/ha", "setting": "[1]; [3]", "result": "95 to 100", "unit": "%"}, {"measurement": "pest or weed control at 140 g/ha", "setting": "[1]; [3]", "result": "95 to 100", "unit": "%"}, {"measurement": "pest or weed control at 70 g/ha", "setting": "[1]; [4]", "result": "95 to 100", "unit": "%"}, {"measurement": "pest or weed control at 140 g/ha", "setting": "[1]; [4]", "result": "95 to 100", "unit": "%"}, {"measurement": "pest or weed control at 70 g/ha", "setting": "[1]; [5]", "result": "85 to 94", "unit": "%"}, {"measurement": "pest or weed control at 140 g/ha", "setting": "[1]; [5]", "result": "85 to 94", "unit": "%"}, {"measurement": "pest or weed control at 70 g/ha", "setting": "[1]; [6]", "result": "95 to 100", "unit": "%"}, {"measurement": "pest or weed control at 140 g/ha", "setting": "[1]; [6]", "result": "95 to 100", "unit": "%"}, {"measurement": "pest or weed control at 70 g/ha", "setting": "[1]; [7]", "result": "95 to 100", "unit": "%"}, {"measurement": "pest or weed control at 140 g/ha", "setting": "[1]; [7]", "result": "95 to 100", "unit": "%"}, {"measurement": "pest or weed control at 70 g/ha", "setting": "[1]; [8]", "result": "95 to 100", "unit": "%"}, {"measurement": "pest or weed control at 140 g/ha", "setting": "[1]; [8]", "result": "95 to 100", "unit": "%"}, {"measurement": "pest or weed control at 70 g/ha", "setting": "[1]; [9]", "result": "0 to 29", "unit": "%"}, {"measurement": "pest or weed control at 140 g/ha", "setting": "[1]; [9]", "result": "0 to 29", "unit": "%"}, {"measurement": "pest or weed control at 70 g/ha", "setting": "[2]; [10]", "result": "85 to 94", "unit": "%"}, {"measurement": "pest or weed control at 140 g/ha", "setting": "[2]; [10]", "result": "85 to 94", "unit": "%"}, {"measurement": "pest or weed control at 70 g/ha", "setting": "[2]; [11]", "result": "45 to 59", "unit": "%"}, {"measurement": "pest or weed control at 140 g/ha", "setting": "[2]; [11]", "result": "60 to 74", "unit": "%"}, {"measurement": "pest or weed control at 70 g/ha", "setting": "[2]; [12]", "result": "95 to 100", "unit": "%"}, {"measurement": "pest or weed control at 140 g/ha", "setting": "[2]; [12]", "result": "95 to 100", "unit": "%"}, {"measurement": "pest or weed control at 70 g/ha", "setting": "[2]; [13]", "result": "0 to 29", "unit": "%"}, {"measurement": "pest or weed control at 140 g/ha", "setting": "[2]; [13]", "result": "0 to 29", "unit": "%"}, {"measurement": "pest or weed control at 70 g/ha", "setting": "[2]; [14]", "result": "45 to 59", "unit": "%"}, {"measurement": "pest or weed control at 140 g/ha", "setting": "[2]; [14]", "result": "75 to 84", "unit": "%"}, {"measurement": "pest or weed control at 70 g/ha", "setting": "[2]; [15]", "result": "95 to 100", "unit": "%"}, {"measurement": "pest or weed control at 140 g/ha", "setting": "[2]; [15]", "result": "95 to 100", "unit": "%"}, {"measurement": "pest or weed control at 70 g/ha", "setting": "[2]; [16]", "result": "0 to 29", "unit": "%"}, {"measurement": "pest or weed control at 140 g/ha", "setting": "[2]; [16]", "result": "0 to 29", "unit": "%"}, {"measurement": "pest or weed control at 70 g/ha", "setting": "[2]; [17]", "result": "75 to 84", "unit": "%"}, {"measurement": "pest or weed control at 140 g/ha", "setting": "[2]; [17]", "result": "85 to 94", "unit": "%"}]}
